Data from patent US9868698B2, “(2S,4R)-5-(5′-chloro-2′-fluorobiphenyl-4-yl)-4-(ethoxyoxalylamino)-2-hydroxymethyl-2-methylpentanoic acid” (THERAVANCE BIOPHARMA R&D IP, LLC, priority 2015, dated 2018).
Values belong to the compound of their own block, whether it stands above or below them.

Assays:
[1] = IV/PO pharmacokinetic study in dogs (Assay 3); assay type: in vivo; conditions: male, beagle, plasma, dog, read-out: AUClast Mean
Experimental: (§1) Each rat or dog pharmacokinetic study began with formulation of the test compound. Appropriate masses of each test compound were added into a volume of vehicle (e.g. 5% sodium bicarbonate, 5% dextrose in water) such that the final concentration of each compound was appropriate to be dosed at 2 mL/kg. Although a homogenous suspension were acceptable for oral dosing, intravenous dosing solutions were sterile-filtered (0.2 μm) prior to dosing to ensure no particulates were administered.
In the dog study, male beagle dogs (3 per route) housed at Agilux Laboratories (Worcester, Mass.) and weighing between 7-12 kg received either a single oral gavage or a single intravenous (via indwelling catheter) dose of the dosing solution. The final dose was typically 0.1-2 mg/kg. Serial blood samples were harvested via direct venipuncture at 3 minutes, 15 minutes, 30 minutes, 1 hour, 2 hours, 4 hours, 6 hours, 8 hours, 12 hours, and 24 hours post-dose. All samples were collected manually into microtainer tubes containing sodium fluoride, potassium oxalate and paraoxon, and were processed to plasma by refrigerated centrifugation.
(§2) Plasma samples were extracted with 3 volumes of MeCN containing a suitable internal standard. Extracts were reconstituted into 3 volumes of water containing 1% formic acid, and analyzed via HPLC-coupled MS/MS. Plasma concentration-time data were analyzed using the Phoenix software (Pharsight Corp., St. Louis, Mo.) to calculate pharmacokinetic parameters.

[2] = target: NEP (Homo sapiens, UniProt P08473); test: In vitro enzyme inhibition assay, human NEP (Assay 1); assay type: biochemical; parameters: purchased R&D Systems 1182-ZN; conditions: read-out: human pKi (converted)
Experimental: (§3) The inhibitory activities at human and rat neprilysin (EC 3.4.24.11; NEP) were determined using in vitro assays as described below.
Recombinant human NEP was obtained commercially (R&D Systems, Minneapolis, Minn., catalog number 1182-ZN). The fluorogenic peptide substrate Mca-D-Arg-Arg-Leu-Dap-(Dnp)-OH (Medeiros et al. (1997) Braz. J. Med. Biol. Res. 30:1157-62; Anaspec, San Jose, Calif.) was used.
(§4) The assays were performed in 384-well white opaque plates at 37° C. using the fluorogenic peptide substrate at a concentration of 10 μM in Assay Buffer (50 mM HEPES, pH 7.5, 100 mM NaCl, 0.01% polyethylene glycol sorbitan monolaurate (Tween-20), 10 μM ZnSO4).
(§5) Test compounds were assayed over the range of concentrations from 10 μM to 20 pM. Test compounds were added to the enzyme and incubated for 30 minute at 37° C. prior to initiating the reaction by the addition of substrate. Reactions were terminated after 20 minutes of incubation at 37° C. by the addition of glacial acetic acid to a final concentration of 3.6% (v/v).
(§6) Plates were read on a fluorometer with excitation and emission wavelengths set to 320 nm and 405 nm, respectively. Inhibition constants were obtained by nonlinear regression of the data using the equation (GraphPad Software, Inc., San Diego, Calif.): v=v0/[1+(I/K′)] where v is the reaction rate, v0 is the uninhibited reaction rate, I is the inhibitor concentration and K′ is the apparent inhibition constant.

[3] = target: T1, Rat NEP (Rattus norvegicus, UniProt P07861); test: In vitro enzyme inhibition assay, rat NEP (Assay 1); assay type: biochemical; conditions: NEP from rat kidneys; read-out: rat pKi (converted)
T1 construct: leaving a viscous oily precipitate containing the enriched membrane fraction; from tissue; host or cells: kidneys of adult Sprague Dawley rats (Triton X-114 enriched membrane fraction)
T1 sequence (P07861 1-750): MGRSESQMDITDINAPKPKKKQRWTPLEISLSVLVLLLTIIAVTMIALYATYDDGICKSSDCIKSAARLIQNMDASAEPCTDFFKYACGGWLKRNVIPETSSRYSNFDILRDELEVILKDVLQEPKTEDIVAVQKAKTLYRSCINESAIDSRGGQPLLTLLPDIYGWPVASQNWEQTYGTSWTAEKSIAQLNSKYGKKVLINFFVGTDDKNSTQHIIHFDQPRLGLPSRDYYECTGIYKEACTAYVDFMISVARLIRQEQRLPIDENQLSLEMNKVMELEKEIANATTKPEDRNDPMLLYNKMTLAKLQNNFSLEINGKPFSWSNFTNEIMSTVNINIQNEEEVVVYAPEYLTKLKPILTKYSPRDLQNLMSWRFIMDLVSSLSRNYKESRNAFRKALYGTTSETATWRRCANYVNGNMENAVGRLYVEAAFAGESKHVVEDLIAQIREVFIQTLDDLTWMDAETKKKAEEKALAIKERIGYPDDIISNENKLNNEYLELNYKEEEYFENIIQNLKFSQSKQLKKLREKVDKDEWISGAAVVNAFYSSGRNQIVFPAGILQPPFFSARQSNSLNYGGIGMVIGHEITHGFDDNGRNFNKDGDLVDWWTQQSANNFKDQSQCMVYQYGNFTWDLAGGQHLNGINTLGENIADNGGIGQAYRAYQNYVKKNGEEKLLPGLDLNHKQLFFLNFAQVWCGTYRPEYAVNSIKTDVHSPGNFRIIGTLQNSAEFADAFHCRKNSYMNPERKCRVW
Experimental: as §3
Rat NEP was prepared from the kidneys of adult Sprague Dawley rats. Whole kidneys were washed in cold phosphate buffered saline (PBS) and brought up in ice-cold lysis buffer (1% Triton X-114, 150 mM NaCl, 50 mM tris(hydroxymethyl) aminomethane (Tris) pH 7.5; Bordier (1981) J. Biol. Chem. 256: 1604-1607) in a ratio of 5 mL of buffer for every gram of kidney. Samples were homogenized on ice using a polytron hand held tissue grinder. Homogenates were centrifuged at 1000×g in a swinging bucket rotor for 5 minutes at 3° C. The pellet was resuspended in 20 mL of ice cold lysis buffer and incubated on ice for 30 minutes. Samples (15-20 mL) were then layered onto 25 mL of ice-cold cushion buffer (6% w/v sucrose, 50 mM pH 7.5 Tris, 150 mM NaCl, 0.06%, Triton X-114), heated to 37° C. for 3-5 minutes and centrifuged at 1000×g in a swinging bucket rotor at room temperature for 3 minutes. The two upper layers were aspirated off, leaving a viscous oily precipitate containing the enriched membrane fraction. Glycerol was added to a concentration of 50% and samples were stored at −20° C. Protein concentrations were quantitated using a BCA detection system with bovine serum albumin (BSA) as a standard.
as §4, §5, §6

[4] = IV/PO pharmacokinetic study in rats (Assay 3); assay type: in vivo; conditions: male, Sprague-Dawley, plasma, rat, read-out: AUClast Mean
Experimental: as §1
In the rat study, pre-cannulated male Sprague-Dawley rats (3 per route) between 8 and 10 weeks of age were obtained from Harlan Laboratories (Indianapolis, Ind.). Rats received either a single oral gavage or a single intravenous (via lateral tail vein) dose of the dosing solution. The final dose was typically 0.5-3 mg/kg. Serial blood samples were harvested via the cannula implanted in the jugular vein at 3 minutes, 15 minutes, 30 minutes, 1 hour, 2 hours, 4 hours, 6 hours, and 24 hours post-dose. Sampling was performed either manually or using automated blood samplers. Samples were collected into microtainer tubes containing sodium fluoride, potassium oxalate and paraoxon, and were processed to plasma by refrigerated centrifugation.
as §2

[5] = Accelerated stability study of calcium salt crystals (Example 7); assay type: physicochemical
Excerpt: One challenge in pharmaceutical drug development relates to discovering a stable, crystalline form of a drug having a reasonably high melting point. The challenge of the present invention was that crystals of the free acid of Compound 1 could not be obtained. Furthermore, many crystal screens failed, with the exception of two-arginine and calcium crystals of (2S,4R)-5-(5′-chloro-2′-fluorobiphenyl-4-yl)-4-(ethoxyoxalylamino)-2-hydroxymethyl-2-methylpentanoic acid were obtained. However, the arginine crystals (see Example 1) were deliquescent at ambient conditions and were difficult to develop further. On the other hand, the calcium crystals were stable and melted around 239° C. For that reason, an accelerated stability study of Compound 1′ was conducted at the temperatures and % relative humidity (RH) reported below.

[6] = Dynamic moisture sorption assessment; assay type: physicochemical
Experimental: In one embodiment, crystalline form 1′ is characterized by the DMS isotherm in FIG. 4. This form is a non-hygroscopic solid. The total moisture gain observed is less than 1% by weight when exposed to between 5% and 90% relative humidity. No significant hysteresis is found between consecutive sorption-desorption cycles.
DMS measurements were performed using a VTI atmospheric microbalance, SGA-100 system (VTI Corp., Hialeah, Fla. 33016). A weighed sample was used and the humidity was lowest possible value (close to 0% relative humidity) at the start of the analysis. The DMS analysis consisted of a scan rate of 5% relative humidity/step over the full humidity range of 5-90%. The DMS run was performed isothermally at 25° C.

[7] = PO, analyte = compound dosed (prodrug)
[8] = IV, analyte = compound dosed (active metabolite)

Chain of NEP (P08473 52-750 limits assumed): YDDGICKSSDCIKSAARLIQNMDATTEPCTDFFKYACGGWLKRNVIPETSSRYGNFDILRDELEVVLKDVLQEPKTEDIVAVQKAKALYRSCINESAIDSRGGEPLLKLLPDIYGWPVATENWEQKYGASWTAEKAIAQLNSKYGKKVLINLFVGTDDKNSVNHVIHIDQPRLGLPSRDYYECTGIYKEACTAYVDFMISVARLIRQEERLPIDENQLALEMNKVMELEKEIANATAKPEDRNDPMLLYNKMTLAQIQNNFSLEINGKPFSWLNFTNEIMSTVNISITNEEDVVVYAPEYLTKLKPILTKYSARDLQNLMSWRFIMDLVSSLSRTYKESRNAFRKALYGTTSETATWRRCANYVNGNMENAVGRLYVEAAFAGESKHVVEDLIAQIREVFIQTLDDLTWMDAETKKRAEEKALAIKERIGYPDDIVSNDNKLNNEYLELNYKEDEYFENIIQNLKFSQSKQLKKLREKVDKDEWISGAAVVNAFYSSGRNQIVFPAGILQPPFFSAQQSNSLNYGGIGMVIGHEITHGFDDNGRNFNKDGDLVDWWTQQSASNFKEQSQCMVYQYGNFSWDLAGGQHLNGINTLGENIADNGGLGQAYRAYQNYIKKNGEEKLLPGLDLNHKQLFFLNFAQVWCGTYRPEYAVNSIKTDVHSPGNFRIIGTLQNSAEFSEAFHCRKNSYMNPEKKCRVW

- AUC(0-t) [1, 7]: 950 ng·h/mL
- Ki [2]: 3980 nM
- Ki [3]: 2000 nM
- AUC(0-t) [4, 7]: 560 ng·h/mL
SMILES: CCOC(=O)[C@](C)(CO)C[C@@H](Cc1ccc(-c2cc(Cl)ccc2F)cc1)NC(=O)C(=O)O [Comparison Compound C3, (2S,4R)-5-(5′-Chloro-2′-fluorobiphenyl-4-yl)-2-hydroxymethyl-2-methyl-4-(oxalylamino)pentanoic Acid Ethyl Ester]

- AUC(0-t) [1, 7]: 480 ng·h/mL
- Ki [2]: 15.8 nM
- Ki [3]: 7.94 nM
- AUC(0-t) [4, 7]: 40 ng·h/mL
SMILES: CCOC(=O)[C@H](O)C[C@@H](Cc1ccc(-c2cc(Cl)ccc2F)cc1)NC(=O)C(=O)O [Comparison Compound C4, (2R,4R)-5-(5′-Chloro-2′-fluorobiphenyl-4-yl)-2-hydroxy-4-(oxalylamino)pentanoic Acid Ethyl Ester]

- AUC(0-t) [1, 7]: 29 ng·h/mL
- Ki [2]: 0.2 nM
- Ki [3]: 0.2 nM
SMILES: CCOC(=O)C(=O)N[C@H](Cc1ccc(-c2cc(Cl)ccc2F)cc1)C[C@@H](O)C(=O)O [Comparison Compound C5, (2R,4R)-5-(5′-Chloro-T-fluorobiphenyl-4-yl)-4-(ethoxyoxalylamino)-2-hydroxypentanoic Acid]

- AUC(0-t) [1, 8]: 1280 ng·h/mL
- Ki [2]: 0.2 nM
- Ki [3]: 0.158 nM
- AUC(0-t) [4, 8]: 15000 ng·h/mL
SMILES: O=C(O)C(=O)N[C@H](Cc1ccc(-c2cc(Cl)ccc2F)cc1)C[C@@H](O)C(=O)O [Comparison Compound C6, (2R,4R)-5-(5′-Chloro-T-fluorobiphenyl-4-yl)-2-hydroxy-4-(oxalylamino)pentanoic Acid]

SMILES: CCOC(=O)C(=O)N[C@H](Cc1ccc(-c2cc(Cl)ccc2F)cc1)C[C@@](C)(CO)C(=O)O [Compound 1′, Calcium (2S,4R)-5-(5′-Chloro-2′-fluoro-[1,1′-biphenyl]-4-yl)-4-(2-ethoxy-2-oxoacetamido)-2-(hydroxymethyl)-2-methylpentanoate]
- Assay ([5]; 5° C., 0 months): 95.0 % (w/w)
- Purity ([5]; 5° C., 0 months): 97.3 % (a/a)
- Assay ([5]; 5° C., 2 months): 93.4 % (w/w)
- Purity ([5]; 5° C., 2 months): 97.6 % (a/a)
- Assay ([5]; 5° C., 3 months): 92.4 % (w/w)
- Purity ([5]; 5° C., 3 months): 97.5 % (a/a)
- Assay ([5]; 25° C., 60% RH, 0 months): 95.0 % (w/w)
- Purity ([5]; 25° C., 60% RH, 0 months): 97.3 % (a/a)
- Assay ([5]; 25° C., 60% RH, 2 months): 94.4 % (w/w)
- Purity ([5]; 25° C., 60% RH, 2 months): 97.3 % (a/a)
- Assay ([5]; 25° C., 60% RH, 3 months): 92.9 % (w/w)
- Purity ([5]; 25° C., 60% RH, 3 months): 96.8 % (a/a)
- Assay ([5]; 40° C., 75% RH, 0 months): 95.0 % (w/w)
- Purity ([5]; 40° C., 75% RH, 0 months): 97.3 % (a/a)
- Assay ([5]; 40° C., 75% RH, 1 month): 95.5 % (w/w)
- Purity ([5]; 40° C., 75% RH, 1 month): 95.9 % (a/a)
- Assay ([5]; 40° C., 75% RH, 2 months): 92.1 % (w/w)
- Purity ([5]; 40° C., 75% RH, 2 months): 95.3 % (a/a)
- Assay ([5]; 40° C., 75% RH, 3 months): 92.1 % (w/w)
- Purity ([5]; 40° C., 75% RH, 3 months): 93.9 % (a/a)
- stability (in words) ([5]; up to at least three months at the temperatures and relative humidity tested): relatively stable
- hygroscopicity (in words) ([6]; DMS isotherm): non-hygroscopic
- total moisture gain ([6]; between 5% and 90% relative humidity, 25° C.): less than 1 % by weight
